Measurements published in PMC12281475, “Mediator Kinase Inhibitor Selectivity and Activity in Colorectal Cancer” (ACS Chemical Biology, 2025).

What was measured:
Assay type in all cases: biochemical
[1] = target: T1, CDK1_CycA2 (Homo sapiens, UniProt P06493); assay: Radiometric protein kinase assay (33PanQinase), CDK1_CycA2; conditions: slope of the IC50 fit
T1 construct: purchased Reaction Biology

[2] = target: T2, CDK1_CycB1 (Homo sapiens, UniProt P06493); assay: Radiometric protein kinase assay (33PanQinase), CDK1_CycB1; conditions: slope of the IC50 fit
T2 construct: purchased Reaction Biology

[3] = target: T3, CDK1_CycE1 (Homo sapiens, UniProt P06493); assay: Radiometric protein kinase assay (33PanQinase), CDK1_CycE1
T3 construct: purchased Reaction Biology

[4] = target: CDK10_CycQ (Homo sapiens, UniProt Q15131); assay: Radiometric protein kinase assay (33PanQinase), CDK10_CycQ
[5] = target: CDK11B 357-795_CycK (Homo sapiens, UniProt P21127); assay: Radiometric protein kinase assay (33PanQinase), CDK11B 357-795_CycK
[6] = target: T4, CDK12_CycK (Homo sapiens, UniProt Q9NYV4); assay: Radiometric protein kinase assay (33PanQinase), CDK12_CycK; conditions: slope of the IC50 fit
T4 construct: purchased Reaction Biology

[7] = target: T5, CDK13_CycK (Homo sapiens, UniProt Q14004); assay: Radiometric protein kinase assay (33PanQinase), CDK13_CycK; conditions: slope of the IC50 fit
T5 construct: purchased Reaction Biology

[8] = target: CDK14_CycY (Homo sapiens, UniProt O94921); assay: Radiometric protein kinase assay (33PanQinase), CDK14_CycY
[9] = target: T6, CDK15_CycA2 (Homo sapiens, UniProt Q96Q40); assay: Radiometric protein kinase assay (33PanQinase), CDK15_CycA2
T6 construct: purchased Reaction Biology

[10] = target: T7, CDK16_CycY (Homo sapiens, UniProt Q00536); assay: Radiometric protein kinase assay (33PanQinase), CDK16_CycY
T7 construct: purchased Reaction Biology

[11] = target: CDK17_p35NCK (Homo sapiens, UniProt Q00537); assay: Radiometric protein kinase assay (33PanQinase), CDK17_p35NCK; conditions: slope of the IC50 fit
[12] = target: CDK18_CycY (Homo sapiens, UniProt Q07002); assay: Radiometric protein kinase assay (33PanQinase), CDK18_CycY
[13] = target: T8, CDK19_CycC (Homo sapiens, UniProt Q9BWU1); assay: Radiometric protein kinase assay (33PanQinase), CDK19_CycC; conditions: slope of the IC50 fit
T8 construct: purchased Reaction Biology

[14] = target: T9, CDK2_CycA2 (Homo sapiens, UniProt P24941); assay: Radiometric protein kinase assay (33PanQinase), CDK2_CycA2
T9 construct: purchased Reaction Biology

[15] = target: T10, CDK2_CycD1 (Homo sapiens, UniProt P24941); assay: Radiometric protein kinase assay (33PanQinase), CDK2_CycD1; conditions: slope of the IC50 fit
T10 construct: purchased Reaction Biology

[16] = target: T11, CDK2_CycE1 (Homo sapiens, UniProt P24941); assay: Radiometric protein kinase assay (33PanQinase), CDK2_CycE1
T11 construct: purchased Reaction Biology

[17] = target: CDK20_CycH (Homo sapiens, UniProt Q8IZL9); assay: Radiometric protein kinase assay (33PanQinase), CDK20_CycH
[18] = target: CDK20_CycT1 (Homo sapiens, UniProt Q8IZL9); assay: Radiometric protein kinase assay (33PanQinase), CDK20_CycT1
[19] = target: T12, CDK3_CycC (Homo sapiens, UniProt Q00526); assay: Radiometric protein kinase assay (33PanQinase), CDK3_CycC; conditions: slope of the IC50 fit
T12 construct: purchased Reaction Biology

[20] = target: T13, CDK3_CycE1 (Homo sapiens, UniProt Q00526); assay: Radiometric protein kinase assay (33PanQinase), CDK3_CycE1
T13 construct: purchased Reaction Biology

[21] = target: T14, CDK4_CycD1 (Homo sapiens, UniProt P11802); assay: Radiometric protein kinase assay (33PanQinase), CDK4_CycD1
T14 construct: purchased Reaction Biology

[22] = target: T15, CDK4_CycD2 (Homo sapiens, UniProt P11802); assay: Radiometric protein kinase assay (33PanQinase), CDK4_CycD2
T15 construct: purchased Reaction Biology

[23] = target: T16, CDK4_CycD3 (Homo sapiens, UniProt P11802); assay: Radiometric protein kinase assay (33PanQinase), CDK4_CycD3
T16 construct: purchased Reaction Biology

[24] = target: T17, CDK5_p25NCK (Homo sapiens, UniProt Q00535); assay: Radiometric protein kinase assay (33PanQinase), CDK5_p25NCK
T17 construct: purchased Reaction Biology

[25] = target: T18, CDK5_p35NCK (Homo sapiens, UniProt Q00535); assay: Radiometric protein kinase assay (33PanQinase), CDK5_p35NCK
T18 construct: purchased Reaction Biology

[26] = target: T19, CDK6_CycD1 (Homo sapiens, UniProt Q00534); assay: Radiometric protein kinase assay (33PanQinase), CDK6_CycD1
T19 construct: purchased Reaction Biology

[27] = target: T20, CDK6_CycD2 (Homo sapiens, UniProt Q00534); assay: Radiometric protein kinase assay (33PanQinase), CDK6_CycD2
T20 construct: purchased Reaction Biology

[28] = target: T21, CDK6_CycD3 (Homo sapiens, UniProt Q00534); assay: Radiometric protein kinase assay (33PanQinase), CDK6_CycD3
T21 construct: purchased Reaction Biology

[29] = target: T22, CDK7_CycH_MAT1 (Homo sapiens, UniProt P50613); assay: Radiometric protein kinase assay (33PanQinase), CDK7_CycH_MAT1
T22 construct: purchased Reaction Biology

[30] = target: T23, CDK8_CycC (Homo sapiens, UniProt P49336); assay: Radiometric protein kinase assay (33PanQinase), CDK8_CycC
T23 construct: purchased Reaction Biology

[31] = target: T24, CDK9_CycK (Homo sapiens, UniProt P50750); assay: Radiometric protein kinase assay (33PanQinase), CDK9_CycK
T24 construct: purchased Reaction Biology

[32] = target: T25, CDK9_CycT1 (Homo sapiens, UniProt P50750); assay: Radiometric protein kinase assay (33PanQinase), CDK9_CycT1
T25 construct: purchased Reaction Biology

[33] = highest assay concentration 1.00E-05 M, read-out: IC50
[34] = highest assay concentration 1.00E-05 M

Sequence of CDK20_CycH (Q8IZL9 whole entry): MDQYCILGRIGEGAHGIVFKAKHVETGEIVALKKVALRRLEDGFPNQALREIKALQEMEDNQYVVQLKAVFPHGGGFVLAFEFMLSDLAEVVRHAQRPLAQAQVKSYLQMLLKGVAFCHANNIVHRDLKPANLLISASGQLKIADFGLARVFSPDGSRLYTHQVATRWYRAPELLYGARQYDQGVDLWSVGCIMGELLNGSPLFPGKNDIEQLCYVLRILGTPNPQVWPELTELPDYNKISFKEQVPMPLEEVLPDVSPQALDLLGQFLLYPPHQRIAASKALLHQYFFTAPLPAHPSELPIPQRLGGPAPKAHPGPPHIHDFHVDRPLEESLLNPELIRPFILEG
Sequence of CDK20_CycT1 (Q8IZL9 whole entry): as above
Sequence of CDK11B 357-795_CycK (P21127 357-795): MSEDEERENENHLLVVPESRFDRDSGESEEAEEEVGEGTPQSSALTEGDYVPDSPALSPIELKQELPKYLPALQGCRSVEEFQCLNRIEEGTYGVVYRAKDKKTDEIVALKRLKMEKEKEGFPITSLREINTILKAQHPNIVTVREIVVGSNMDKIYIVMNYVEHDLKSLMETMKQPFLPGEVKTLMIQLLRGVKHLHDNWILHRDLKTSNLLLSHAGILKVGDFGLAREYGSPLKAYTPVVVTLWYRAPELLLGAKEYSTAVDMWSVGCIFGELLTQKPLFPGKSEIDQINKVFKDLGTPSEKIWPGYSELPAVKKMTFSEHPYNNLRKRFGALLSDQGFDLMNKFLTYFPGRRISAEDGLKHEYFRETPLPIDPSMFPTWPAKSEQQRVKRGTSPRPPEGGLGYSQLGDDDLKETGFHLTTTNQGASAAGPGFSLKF
T25 sequence (P50750 whole entry): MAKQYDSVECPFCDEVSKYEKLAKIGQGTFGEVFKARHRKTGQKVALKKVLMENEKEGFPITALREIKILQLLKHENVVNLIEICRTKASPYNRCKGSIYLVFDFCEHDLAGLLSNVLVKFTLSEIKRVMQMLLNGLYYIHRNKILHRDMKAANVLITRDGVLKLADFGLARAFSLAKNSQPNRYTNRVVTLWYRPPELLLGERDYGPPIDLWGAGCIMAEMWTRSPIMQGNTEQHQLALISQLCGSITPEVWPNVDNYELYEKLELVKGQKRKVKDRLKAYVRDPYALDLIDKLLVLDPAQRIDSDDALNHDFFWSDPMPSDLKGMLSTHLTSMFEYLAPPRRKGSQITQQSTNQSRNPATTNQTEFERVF
T25 sequence (O60563 whole entry partner): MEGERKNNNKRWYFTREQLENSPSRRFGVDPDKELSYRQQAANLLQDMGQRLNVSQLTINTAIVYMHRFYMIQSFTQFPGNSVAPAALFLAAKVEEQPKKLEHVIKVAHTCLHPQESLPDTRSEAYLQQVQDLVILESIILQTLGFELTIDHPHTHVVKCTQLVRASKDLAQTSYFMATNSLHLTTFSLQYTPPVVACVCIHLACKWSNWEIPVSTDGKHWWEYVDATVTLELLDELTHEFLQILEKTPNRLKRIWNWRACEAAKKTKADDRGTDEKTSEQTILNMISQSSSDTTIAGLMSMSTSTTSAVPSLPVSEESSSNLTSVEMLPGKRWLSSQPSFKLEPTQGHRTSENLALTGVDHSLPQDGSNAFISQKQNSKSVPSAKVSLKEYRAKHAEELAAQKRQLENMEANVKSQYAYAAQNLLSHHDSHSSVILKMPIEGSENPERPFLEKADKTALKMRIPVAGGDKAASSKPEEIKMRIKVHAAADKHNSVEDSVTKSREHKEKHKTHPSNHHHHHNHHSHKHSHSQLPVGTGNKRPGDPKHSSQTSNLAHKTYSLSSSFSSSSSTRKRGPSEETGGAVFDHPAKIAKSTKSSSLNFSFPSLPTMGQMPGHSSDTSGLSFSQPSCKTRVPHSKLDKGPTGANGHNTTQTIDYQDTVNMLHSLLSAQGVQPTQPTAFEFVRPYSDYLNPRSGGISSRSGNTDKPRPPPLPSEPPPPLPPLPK
T24 sequence (P50750 whole entry): as the sequence (P50750 whole entry) above
T24 sequence (O75909 whole entry partner): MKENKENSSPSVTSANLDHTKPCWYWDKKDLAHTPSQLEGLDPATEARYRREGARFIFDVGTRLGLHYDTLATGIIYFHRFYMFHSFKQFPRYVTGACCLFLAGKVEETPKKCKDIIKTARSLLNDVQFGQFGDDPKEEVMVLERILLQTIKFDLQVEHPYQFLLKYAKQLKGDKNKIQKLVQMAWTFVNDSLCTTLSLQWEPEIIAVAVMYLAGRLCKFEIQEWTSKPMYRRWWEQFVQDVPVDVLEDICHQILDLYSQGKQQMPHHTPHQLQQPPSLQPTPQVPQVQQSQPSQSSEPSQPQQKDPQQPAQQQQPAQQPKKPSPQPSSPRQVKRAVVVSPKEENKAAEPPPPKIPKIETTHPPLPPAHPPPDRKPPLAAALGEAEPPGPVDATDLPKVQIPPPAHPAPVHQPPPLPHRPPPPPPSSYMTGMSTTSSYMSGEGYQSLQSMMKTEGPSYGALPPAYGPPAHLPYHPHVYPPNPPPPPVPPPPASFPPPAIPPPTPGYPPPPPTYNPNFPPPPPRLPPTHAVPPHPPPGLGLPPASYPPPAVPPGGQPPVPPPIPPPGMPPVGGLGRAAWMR
Sequence of CDK10_CycQ (Q15131 whole entry): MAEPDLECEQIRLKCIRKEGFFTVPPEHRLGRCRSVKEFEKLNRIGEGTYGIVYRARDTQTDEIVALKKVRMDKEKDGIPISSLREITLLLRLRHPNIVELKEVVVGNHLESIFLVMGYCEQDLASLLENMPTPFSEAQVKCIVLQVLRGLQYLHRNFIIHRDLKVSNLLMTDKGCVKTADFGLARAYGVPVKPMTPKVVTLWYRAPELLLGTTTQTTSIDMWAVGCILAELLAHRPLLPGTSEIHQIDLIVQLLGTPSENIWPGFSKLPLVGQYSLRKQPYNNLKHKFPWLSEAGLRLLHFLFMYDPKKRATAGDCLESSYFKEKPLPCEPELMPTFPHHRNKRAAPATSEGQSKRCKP
Sequence of CDK10_CycQ (Q8N1B3 whole entry partner): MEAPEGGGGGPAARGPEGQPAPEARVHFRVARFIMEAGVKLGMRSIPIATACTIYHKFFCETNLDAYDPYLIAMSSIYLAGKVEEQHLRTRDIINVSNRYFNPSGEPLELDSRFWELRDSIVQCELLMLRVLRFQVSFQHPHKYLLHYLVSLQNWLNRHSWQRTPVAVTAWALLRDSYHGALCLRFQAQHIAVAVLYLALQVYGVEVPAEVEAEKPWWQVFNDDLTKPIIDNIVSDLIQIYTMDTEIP
T23 sequence (P49336 whole entry): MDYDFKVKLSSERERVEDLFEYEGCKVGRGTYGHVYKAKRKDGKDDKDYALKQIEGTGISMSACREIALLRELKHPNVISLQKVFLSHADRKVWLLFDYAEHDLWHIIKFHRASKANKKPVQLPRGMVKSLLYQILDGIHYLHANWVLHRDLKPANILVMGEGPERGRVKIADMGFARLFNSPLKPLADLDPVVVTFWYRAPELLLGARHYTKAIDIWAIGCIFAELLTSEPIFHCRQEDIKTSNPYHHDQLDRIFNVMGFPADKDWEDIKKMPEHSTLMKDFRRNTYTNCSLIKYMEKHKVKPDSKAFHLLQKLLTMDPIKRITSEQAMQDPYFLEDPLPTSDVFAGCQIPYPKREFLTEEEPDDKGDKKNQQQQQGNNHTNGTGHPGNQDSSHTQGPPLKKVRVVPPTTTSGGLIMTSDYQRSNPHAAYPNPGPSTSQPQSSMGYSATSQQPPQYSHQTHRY
T23 sequence (P24863 whole entry partner): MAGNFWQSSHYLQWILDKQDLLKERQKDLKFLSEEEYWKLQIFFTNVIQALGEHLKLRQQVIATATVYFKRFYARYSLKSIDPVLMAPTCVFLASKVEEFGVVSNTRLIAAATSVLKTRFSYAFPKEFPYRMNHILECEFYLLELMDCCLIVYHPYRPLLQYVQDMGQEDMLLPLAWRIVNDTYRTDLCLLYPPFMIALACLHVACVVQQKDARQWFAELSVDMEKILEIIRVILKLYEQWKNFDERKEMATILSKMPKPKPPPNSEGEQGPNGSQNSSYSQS
T20 sequence (Q00534 whole entry): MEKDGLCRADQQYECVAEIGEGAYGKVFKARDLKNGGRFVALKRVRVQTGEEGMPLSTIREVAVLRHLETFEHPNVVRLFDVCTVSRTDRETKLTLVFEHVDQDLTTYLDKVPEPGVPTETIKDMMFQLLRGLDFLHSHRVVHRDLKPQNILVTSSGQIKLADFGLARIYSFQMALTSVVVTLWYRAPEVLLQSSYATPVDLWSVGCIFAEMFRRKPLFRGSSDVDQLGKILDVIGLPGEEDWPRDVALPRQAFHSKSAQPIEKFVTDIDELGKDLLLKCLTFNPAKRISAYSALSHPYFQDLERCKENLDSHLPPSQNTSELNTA
T20 sequence (P30279 whole entry partner): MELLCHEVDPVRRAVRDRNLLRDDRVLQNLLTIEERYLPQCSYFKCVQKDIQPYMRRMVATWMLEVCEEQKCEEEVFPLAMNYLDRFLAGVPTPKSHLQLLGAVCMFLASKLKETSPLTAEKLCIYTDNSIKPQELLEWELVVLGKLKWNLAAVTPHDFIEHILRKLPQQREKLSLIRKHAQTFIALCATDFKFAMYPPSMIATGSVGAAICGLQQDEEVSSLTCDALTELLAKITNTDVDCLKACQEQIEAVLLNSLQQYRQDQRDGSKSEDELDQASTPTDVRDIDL
T21 sequence (Q00534 whole entry): as the sequence (Q00534 whole entry) above
T21 sequence (P30281 whole entry partner): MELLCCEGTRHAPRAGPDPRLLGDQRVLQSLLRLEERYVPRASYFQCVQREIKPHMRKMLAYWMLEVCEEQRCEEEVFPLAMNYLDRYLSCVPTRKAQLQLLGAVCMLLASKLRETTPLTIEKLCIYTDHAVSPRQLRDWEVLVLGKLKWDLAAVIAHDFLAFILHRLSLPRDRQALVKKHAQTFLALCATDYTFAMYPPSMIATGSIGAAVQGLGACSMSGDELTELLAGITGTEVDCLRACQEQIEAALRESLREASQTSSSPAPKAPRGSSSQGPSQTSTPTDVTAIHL

CN1CCN(C(=O)c2ccc3cc(CCNc4ncnc5ccc(C#N)cc45)ccc3c2)CC1 [Senexin B, reference compound]
Hill Slope [1]: -0.17 | Hill Slope [2]: -0.12 | IC50 [3, 33]: > 10 µM | Hill Slope ([3]; slope of the IC50 fit): -0.4 | IC50 [4, 34]: > 10 µM | Hill Slope ([4]; slope of the IC50 fit): -0.47 | IC50 [5, 34]: > 10 µM | Hill Slope ([5]; slope of the IC50 fit): -0.19 | Hill Slope [6]: -0.18 | Hill Slope [7]: -0.12 | IC50 [8, 34]: > 10 µM | Hill Slope ([8]; slope of the IC50 fit): -0.57 | IC50 [9, 34]: > 10 µM | Hill Slope ([9]; slope of the IC50 fit): -0.78 | IC50 [10, 34]: > 10 µM | Hill Slope ([10]; slope of the IC50 fit): -0.95 | Hill Slope [11]: -0.16 | IC50 [12, 34]: > 10 µM | Hill Slope ([12]; slope of the IC50 fit): -0.39 | Hill Slope [13]: -0.53 | IC50 [14, 33]: > 10 µM | Hill Slope ([14]; slope of the IC50 fit): -0.76 | Hill Slope [15]: -0.18 | IC50 [16, 33]: > 10 µM | Hill Slope ([16]; slope of the IC50 fit): -0.46 | IC50 [17, 34]: > 10 µM | Hill Slope ([17]; slope of the IC50 fit): -0.32 | IC50 [18, 34]: > 10 µM | Hill Slope ([18]; slope of the IC50 fit): -0.45 | Hill Slope [19]: -0.01 | IC50 [20, 33]: > 10 µM | Hill Slope ([20]; slope of the IC50 fit): -0.36 | IC50 [21, 34]: > 10 µM | Hill Slope ([21]; slope of the IC50 fit): -0.51 | IC50 [22, 34]: > 10 µM | Hill Slope ([22]; slope of the IC50 fit): -0.64 | IC50 [23, 34]: > 10 µM | Hill Slope ([23]; slope of the IC50 fit): -0.51 | IC50 [24, 34]: > 10 µM | Hill Slope ([24]; slope of the IC50 fit): -0.24 | IC50 [25, 34]: > 10 µM | Hill Slope ([25]; slope of the IC50 fit): -0.43 | IC50 [26, 34]: > 10 µM | Hill Slope ([26]; slope of the IC50 fit): -0.17 | IC50 [27, 34]: > 10 µM | Hill Slope ([27]; slope of the IC50 fit): -0.36 | IC50 [28, 34]: > 10 µM | Hill Slope ([28]; slope of the IC50 fit): -0.32 | IC50 [29, 34]: > 10 µM | Hill Slope ([29]; slope of the IC50 fit): -0.55 | IC50 [30, 33]: 0.165 µM | Hill Slope ([30]; slope of the IC50 fit): -0.56 | IC50 [31, 34]: 5.16 µM | Hill Slope ([31]; slope of the IC50 fit): -0.6 | IC50 [32, 34]: 9.43 µM | Hill Slope ([32]; slope of the IC50 fit): -0.82
